According to ChEMBL document CHEMBL1121621, “Synthesis and antiarrhythmic activity of alpha, alpha-bis[(dialkylamino)alkyl]phenylacetamides” (J Med Chem, 1980):
The source made the active and inactive calls. No cut-off for these calls is given here.

How the values were obtained:
[1] = test system: Canis familiaris; experiment: Compound was evaluated for maximum reduction of ectopic beats after oral administration at a dose 15 mg/kg to dog.; type: functional, Canis lupus familiaris, Heart
[2] = test system: Canis familiaris; experiment: Compound was evaluated for maximum reduction of ectopic beats after oral administration at a dose 25 mg/kg to dog.; type: functional, Canis lupus familiaris, Heart
[3] = test system: Canis familiaris; experiment: Compound was evaluated for duration of action after oral administration at a dose 12 mg/kg to dog.; type: functional, Canis lupus familiaris
[4] = test system: Canis familiaris; experiment: Compound was evaluated for onset of action after oral administration at a dose 15 mg/kg to dog.; type: functional, Canis lupus familiaris
[5] = test system: Canis familiaris; experiment: Activity duration index was evaluated in mixed-breed or Beagle dogs after intravenous administration.; type: functional, Canis lupus familiaris
[6] = test system: Canis familiaris; experiment: Compound was evaluated for maximum reduction of ectopic beats after oral administration at a dose 12 mg/kg to dog.; type: functional, Canis lupus familiaris, Heart
[7] = test system: Canis familiaris; experiment: Antiarrhythmic activity was evaluated in mixed-breed or Beagle dogs after intravenous administration.; type: functional, Canis lupus familiaris, Heart
[8] = test system: Canis familiaris; experiment: Compound was evaluated for duration of action after oral administration at a dose 15 mg/kg to dog.; type: functional, Canis lupus familiaris
[9] = test system: Canis familiaris; experiment: Minimum effective dose evaluated in mixed-breed or Beagle dogs after intravenous administration; type: functional; details: Canis lupus familiaris, read-out: MED
[10] = test system: Canis familiaris; experiment: Compound was evaluated for duration of action after oral administration at a dose 25 mg/kg to dog.; type: functional, Canis lupus familiaris
[11] = Therapeutic ratio in mixed-breed or Beagle dogs after intravenous administration of the compound.; type: ADME, Canis lupus familiaris; details: dog, in vivo, read-out: TR
[12] = test system: Canis familiaris; experiment: Compound was evaluated for onset of action after oral administration at a dose 12 mg/kg to dog.; type: functional, Canis lupus familiaris
[13] = test system: Canis familiaris; experiment: Compound was evaluated for onset of action after oral administration at a dose 25 mg/kg to dog.; type: functional, Canis lupus familiaris
[14] = test system: Canis familiaris; experiment: Minimum effective dose was evaluated in mixed-breed or Beagle dogs after intravenous administration of the compound; type: functional; details: Canis lupus familiaris, read-out: MED
[15] = test system: Canis familiaris; experiment: Compound was evaluated for maximum reduction of ectopic beats after oral administration at a dose 25 mg/kg to dog; IA means inactive; type: functional, organism-based; parameters: dose 25 mg/kg; details: Canis lupus familiaris; Heart
[16] = test system: Canis familiaris; experiment: Compound was evaluated for maximum reduction of ectopic beats after oral administration at a dose 25 mg/kg to dog; L means lethal; type: functional, organism-based; parameters: dose 25 mg/kg; details: Canis lupus familiaris; Heart
[17] = Therapeutic ratio was evaluated in mixed-breed or Beagle dogs after intravenous administration of the compound; type: ADME, Canis lupus familiaris; details: dog, in vivo, read-out: TR
[18] = test system: Canis familiaris; experiment: Compound was evaluated for maximum reduction of ectopic beats after oral administration at a dose 15 mg/kg to dog; IA means inactive; type: functional, organism-based; parameters: dose 15 mg/kg; details: Canis lupus familiaris; Heart

SMILES	ADI [5]	AR [7]	minimal effective dose [9]	Duration [10]	selectivity ratio [11]	Onset of action [13]	other results
CC(C)N(CCC(CCN1CCCCC1)(C(N)=O)c1ccccc1Cl)C(C)C (stereo unspecified) [DISOBUTAMIDE]	1.76	8.4	3.3 mg/kg	>360 min	8.8	80 min	Max reduction [1]: 90%; Max reduction [2]: 100%; Duration [3]: 75 min; Onset of action [4]: 85 min; Reduction [6]: 49%; Duration [8]: 210 min; Onset of action [12]: 135 min
CC(C)N(CCC(CCN1CCCCC1)(C(N)=O)c1ccccc1F)C(C)C (stereo unspecified)	1.47	6	1.8 mg/kg	300 min	18	45 min	Reduction [2]: 100%; Duration [3]: 90 min; Reduction [6]: 67%; Onset of action [12]: 90 min
CC(C)N(CCC(CCN1CCOCC1)(C(N)=O)c1ccccc1Cl)C(C)C (stereo unspecified)	0.49	3.4	–	–	–	–	minimal effective dose [14]: 11.7 mg/kg
CC(C)N(CCC(CCN1CC2CCC(CC2)C1)(C(N)=O)c1ccccc1)C(C)C (stereo unspecified)	0.96	7	2.5 mg/kg	–	12.5	–	Reduction [15]: inactive
CC(C)N(CCC(CCC1CCCCC1)(C(N)=O)c1ccccc1Cl)C(C)C (stereo unspecified)	3.07	–	3.5 mg/kg	–	–	–	Reduction [16]: Lethal; selectivity ratio [17]: 6.1
CC(C)N(CCC(C(N)=O)(c1ccccc1)c1ccccn1)C(C)C (stereo unspecified) [DISOPYRAMIDE]	0.5	4.1	6.6 mg/kg	120 min	6.6	172 min	Reduction [2]: 79%; Reduction [18]: inactive
CC(C)N(CCC(CCN(C(C)C)C(C)C)(C(N)=O)c1ccc(C(C)(C)C)cc1)C(C)C	1.35	–	2 mg/kg	–	–	–	selectivity ratio [17]: 4.9
